{
  "source": "patent US7482486B2",
  "about": "“Methods for the preparation and formulation of magnesium valproate hydrate” (BioLink Life Sciences, Inc., priority 2005, dated 2009)",
  "key": {"deacetylase": {"test_system": "deacetylase", "details": "dose between 20 and 40 mg/kg; patients with cervical cancer; cited from earlier work"}, "[1]": {"details": "in comparison with sodium valproate or valproic acid; cited from earlier work"}, "[2]": {"details": "background statement; cited from earlier work"}, "[3]": {"details": "cited from earlier work"}, "[4]": {"test": "Hygroscopicity / deliquescence of the solid", "assay_type": "physicochemical", "details": "isolated solid"}, "[5]": {"test": "Stability of the solid during storage", "assay_type": "physicochemical", "details": "ambient conditions where stated, hydrate"}, "epileptic patients": {"test_system": "epileptic patients", "test": "Open, comparative clinical trial in epileptic patients versus sodium valproate", "details": "expected", "from_the_text": "The therapeutic benefit of magnesium valproate hydrate of the present invention is compared with that of sodium valproate in an open, comparative clinical trial in epileptic patients. […] Then treatment is substituted with magnesium valproate hydrate (alone or combined with other drugs) for 3 months."}, "[6]": {"details": "after 3 months of magnesium valproate hydrate, substituted for sodium valproate"}},
  "data": [
    {"compound": "2-propylpentanoic acid magnesium salt [magnesium valproate]", "values": [
      {"measurement": "deacetylase activity and histone acetylation in tumor tissues", "setting": "deacetylase", "result": "inhibits deacetylase activity and hyperacetylates histones"},
      {"measurement": "absorption rate", "setting": "[1]", "result": "slower and more regular absorption rate"}
    ]},
    {"compound": "CCCC(CCC)C(=O)[O-].[Na+]", "note": "[Sodium valproate]", "values": [
      {"measurement": "hygroscopicity", "setting": "[2]", "result": "hygroscopic"}
    ]},
    {"compound": "CCCC(CCC)C(=O)O", "note": "[Valproic acid, 2-propylpentanoic acid]", "values": [
      {"measurement": "solubility in water", "setting": "[3]", "result": "very slightly soluble in water"}
    ]},
    {"compound": "CCCC(CCC)C(=O)O", "note": "[divalproex sodium]", "values": [
      {"measurement": "hygroscopicity", "setting": "[2]", "result": "not hygroscopic"}
    ]},
    {"compound": "magnesium valproate hydrate", "values": [
      {"measurement": "hygroscopicity / deliquescence", "setting": "[4]", "result": "not hygroscopic or deliquescent"},
      {"measurement": "stability during storage", "setting": "[5]", "result": "stable during storage under ambient conditions"},
      {"measurement": "number of patients with no convulsions or only occasional convulsions", "setting": "epileptic patients; [6]", "result": "increase significantly"},
      {"measurement": "percentage of patients without convulsions", "setting": "epileptic patients; [6]", "result": "increase significantly"},
      {"measurement": "side effects (e.g., gastric discomfort or ulceration, malaise)", "setting": "epileptic patients; versus sodium valproate", "result": "fewer side effects"}
    ]}
  ]
}
